OCCOc1ccc2ccccc2c1-c1c(OCCO)ccc2ccccc12
solubility (mole fraction)
Settings	283.15 K	288.15 K	293.15 K	298.15 K	303.15 K	308.15 K	313.15 K	318.15 K	323.15 K
in acetone	0.00658	0.00893	0.0121	0.0153	0.0212	0.027	0.0352	0.0441	0.0567
in ethyl acetate	0.00227	0.00328	0.00464	0.00604	0.00802	0.0104	0.0133	0.0174	0.0229
in ethyl formate	0.00207	0.00284	0.00399	0.00539	0.00721	0.00964	0.0123	0.0161	0.0209
in isobutanol	0.000512	0.000733	0.00108	0.00147	0.00209	0.00291	0.00388	0.005	0.00655
in isobutyl acetate	0.00105	0.00158	0.0022	0.00296	0.00396	0.00518	0.00692	0.00911	0.0117
in isopropanol	0.000762	0.00102	0.00132	0.00187	0.00263	0.00351	0.00487	0.00649	0.00847
in methyl acetate	0.00297	0.00423	0.00595	0.00778	0.0102	0.0137	0.0173	0.0218	0.0292
in n-butanol	0.000873	0.00119	0.00168	0.00242	0.00317	0.00428	0.0058	0.00782	0.0109
in n-butyl acetate	0.00136	0.00186	0.00286	0.00389	0.00486	0.00646	0.0086	0.0108	0.0144
in n-pentanol	0.000827	0.00116	0.00163	0.00227	0.00303	0.00413	0.00551	0.00725	0.00966
in n-propanol	0.00111	0.00143	0.00189	0.00268	0.00369	0.00494	0.00644	0.00847	0.012
in toluene	0.000885	0.00122	0.00176	0.0025	0.00331	0.00447	0.00595	0.00794	0.0104

From BigSolDB 2.1
